Experimental findings from ChEMBL document CHEMBL1221401, “Antiproliferative compounds from Pongamiopsis pervilleana from the Madagascar Dry Forest” (J Nat Prod, 2010) are described below.

Assay type in all cases: functional, cell-based
For one assay, the system named is A2780. Nature of the assay: Antiproliferative activity against human A2780 cells after 96 hrs by CellTiter-Glo luminescent cell viability assay. As to conditions: A2780, 96 h. In general terms: ATP-based viability assays read luminescence as a measure of living cells.
The test system of another assay is BT-549. Nature of the assay: Antiproliferative activity against human BT549 cells after 96 hrs by CellTiter-Glo luminescent cell viability assay. As to conditions: BT-549, 96 h.
The subject of the next assay is DU-145. Nature of the assay: Antiproliferative activity against human DU145 cells after 96 hrs by CellTiter-Glo luminescent cell viability assay. As to conditions: DU-145, 96 h.
The test system of a further assay is NCI-H460. The assay can be described thus: Antiproliferative activity against human NCI-H460 cells after 96 hrs by CellTiter-Glo luminescent cell viability assay. The following applies: NCI-H460, 96 h.
For another assay, the system named is HCC 2998. Nature of the assay: Antiproliferative activity against human HCC2998 cells after 96 hrs by CellTiter-Glo luminescent cell viability assay. The following applies: HCC 2998, 96 h.

Some results are limits rather than exact numbers.

Usually IC50 stands for the concentration needed to halve the response being measured. Lower therefore signals greater potency. `C=C(CO)[C@H]1Cc2cc3c(cc2O1)OC[C@H]1c2cc4c(cc2O[C@@H]31)OCO4` registered an IC50 in the assay with A2780 of over 54.4 µM.
The same measure, in the same setting: to `C=C(C)[C@H]1Cc2cc3c(cc2O1)OC[C@H]1c2cc4c(cc2O[C@@H]31)OCO4` [EMOROIDOCARPAN] belongs 26.5 µM; to `COc1c(-c2ccc3c(c2)OCO3)c(=O)oc2c3c(ccc12)OC(C)(C)C=C3` [PONGAVILLEANINE], 9.5 µM.
Regarding `C=C(C)[C@H]1Cc2c(ccc3c2O[C@@H]2COc4cc(OC)c(OC)cc4[C@]2(O)C3=O)O1` [ROTENOLONE], the IC50 in the assay with A2780 was 0.95 µM; in the assay on BT-549 it was 1.6 µM; in the assay on DU-145, 2.7 µM; in the assay with NCI-H460, 2 µM; in the assay on HCC 2998 it was 2.9 µM.
